Assay [1] deals with T1, hα2B receptor (Homo sapiens, UniProt P18089).
T1 construct: expressed in transfected cells
T1 sequence (P18089 1-450): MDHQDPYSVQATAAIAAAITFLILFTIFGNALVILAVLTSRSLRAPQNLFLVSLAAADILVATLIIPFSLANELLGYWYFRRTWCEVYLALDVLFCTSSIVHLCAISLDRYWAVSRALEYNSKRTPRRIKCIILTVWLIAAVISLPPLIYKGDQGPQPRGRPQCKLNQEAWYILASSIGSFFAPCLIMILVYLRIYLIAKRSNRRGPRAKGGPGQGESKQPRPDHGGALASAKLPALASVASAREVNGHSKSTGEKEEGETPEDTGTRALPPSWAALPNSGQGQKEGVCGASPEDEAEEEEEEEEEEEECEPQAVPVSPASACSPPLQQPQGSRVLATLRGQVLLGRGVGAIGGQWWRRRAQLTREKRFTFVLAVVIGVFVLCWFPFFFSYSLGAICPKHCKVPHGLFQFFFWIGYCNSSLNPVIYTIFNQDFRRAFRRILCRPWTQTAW
Put plainly: Radioligand binding experiment for hα2B receptor ([3H]-raulwolscine). The protocol:
(§1) The interaction of the compounds of Formula (I) with hα2-receptors and h5-HT-transporters was assessed in in vitro radioligand binding experiments. In general, a low concentration of a radioligand with a high binding affinity for a particular receptor or transporter is incubated with a sample of a tissue preparation enriched in a particular receptor or transporter or with a preparation of cells expressing cloned human receptors in a buffered medium. During the incubation, the radioligand binds to the receptor or transporter. When equilibrium of binding is reached, the receptor bound radioactivity is separated from the non-bound radioactivity, and the receptor- or transporter-bound activity is counted. The interaction of the test compounds with the receptor is assessed in competition binding experiments. Various concentrations of the test compound are added to the incubation mixture containing the receptor- or transporter preparation and the radioligand. The test compound in proportion to its binding affinity and its concentration inhibits binding of the radioligand. The radioligand used for hα2A, hα2B and hα2C receptor binding was [^3H]-raulwolscine and for the h5-HT transporter was [^3H]paroxetine.
(§2) CHO cells, stabile transfected with human adrenergic-α2A-, -α2B or α2C receptor cDNA, were cultured in Dulbecco's Modified Eagle's Medium (DMEM)/Nutrient mixture Ham's F12 (ratio 1:1)(Gibco, Gent-Belgium) supplemented with 10% heat inactivated fetal calf serum (Life Technologies, Merelbeke-Belgium) and antibiotics (100 IU/ml penicillin G, 100 μg/ml streptomycin sulphate, 110 μg/ml pyruvic acid and 100 μg/ml L-glutamine). One day before collection, cells were induced with 5 mM sodiumbutyrate. Upon 80–90% of confluence, cells were scraped in phosphate buffered saline without Ca^2+ and Mg^2+ and collected by centrifugation at 1500×g for 10 min. The cells were homogenised in Tris-HCl 50 mM using an Ultraturrax homogenizer and centrifuged for 10 min at 23,500×g. The pellet was washed once by resuspension and rehomogenization and the final pellet was resuspended in Tris-HCl, divided in 1 ml aliquots and stored at −70° C.
(§3) Membranes were thawed and re-homogenized in incubation buffer (glycylglycine 25 mM, pH 8.0). […] Filters were rinsed extensively with ice-cold rinsing buffer (Tris-HCl 50 mM pH 7.4). Filter-bound radioactivity was determined by scintillation counting in a Topcount (Packard, Meriden, Conn.) and results were expressed as counts per minute (cpm). Non-specific binding was determined in the presence of 1 μM oxymetazoline for hα2A- and hα2B receptors and 1 μM spiroxatrine for hα2C receptors.
(§4) Data from assays in the presence of compound were calculated as a percentage of total binding measured in the absence of test compound. Inhibition curves, plotting percent of total binding versus the log value of the concentration of the test compound, were automatically generated, and sigmoidal inhibition curves were fitted using non-linear regression. The pIC50 values of test compounds were derived from individual curves.

Assay [2] has as its target T2, h5-HT transporter (Homo sapiens, UniProt P31645).
T2 construct: Human platelet membranes (Oceanix Biosciences Corporation, Hanover, Md., USA) were thawed; tissue Oceanix Biosciences Corporation, Hanover, Md., USA; host or cells: human platelet membranes
Description: Radioligand binding experiment for 5-HT transporter ([3H]paroxetine, human platelet membranes). As for the experimental part: as §1
Human platelet membranes (Oceanix Biosciences Corporation, Hanover, Md., USA) were thawed, diluted in buffer (Tris-HCl 50 mM, 120 mM NaCl and 5 mM KCl) and quickly (max 3 s) homogenised with an Ultraturrax homogenizer. […] Filters were rinsed extensively with ice-cold buffer and radioactivity on the filters was counted in a Topcount liquid scintillation counter (Packard, Meriden, Conn.). Data were expressed as cpm. Imipramine (at 1 μM final concentration) was used to determine the non-specific binding.
as §4

The target in assay [3] is T3, hα2C receptor (Homo sapiens, UniProt P18825).
T3 construct: expressed in transfected cells
T3 sequence (P18825 1-462): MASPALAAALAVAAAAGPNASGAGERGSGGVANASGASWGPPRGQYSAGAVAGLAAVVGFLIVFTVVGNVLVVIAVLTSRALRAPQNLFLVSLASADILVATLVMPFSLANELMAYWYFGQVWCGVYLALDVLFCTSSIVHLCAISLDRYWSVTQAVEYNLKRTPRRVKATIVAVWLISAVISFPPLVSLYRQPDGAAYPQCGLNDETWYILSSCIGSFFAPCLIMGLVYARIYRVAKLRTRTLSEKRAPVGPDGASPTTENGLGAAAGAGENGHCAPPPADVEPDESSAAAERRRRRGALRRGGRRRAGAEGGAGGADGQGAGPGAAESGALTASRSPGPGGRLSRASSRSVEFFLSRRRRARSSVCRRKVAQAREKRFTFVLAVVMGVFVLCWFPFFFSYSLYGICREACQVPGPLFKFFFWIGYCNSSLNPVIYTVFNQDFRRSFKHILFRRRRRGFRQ
Description: Radioligand binding experiment for hα2C receptor ([3H]-raulwolscine). As for the experimental part: as §1, §2, §3, §4

Setting [4] is: read-out: 5HTT pIC50 (converted).
Setting [5] is: membranes of CHO cells expressing human α2B receptor, [3H]raulwolscine 1 nM, read-out: hα2B pIC50 (converted).
[6] abbreviates: human platelet membranes, [3H]paroxetine 0.5 nM, read-out: 5HTT pIC50 (converted).
[7] abbreviates: membranes of CHO cells expressing human α2C receptor, [3H]raulwolscine 1 nM, read-out: hα2C pIC50 (converted).
The mark [8] stands for this setting: membranes of CHO cells expressing human α2B receptor, [3H]raulwolscine 1 nM.
Where [9] appears, read: human platelet membranes, [3H]paroxetine 0.5 nM.
Setting [10] is: membranes of CHO cells expressing human α2C receptor, [3H]raulwolscine 1 nM.
The mark [11] stands for this setting: hα2C pIC50, membranes of CHO cells expressing human α2C receptor, [3H]raulwolscine 1 nM.

SMILES strings stand for the structures. Like-named read-outs stand apart in the source and are kept apart here.

T2 sequence (P31645 whole entry): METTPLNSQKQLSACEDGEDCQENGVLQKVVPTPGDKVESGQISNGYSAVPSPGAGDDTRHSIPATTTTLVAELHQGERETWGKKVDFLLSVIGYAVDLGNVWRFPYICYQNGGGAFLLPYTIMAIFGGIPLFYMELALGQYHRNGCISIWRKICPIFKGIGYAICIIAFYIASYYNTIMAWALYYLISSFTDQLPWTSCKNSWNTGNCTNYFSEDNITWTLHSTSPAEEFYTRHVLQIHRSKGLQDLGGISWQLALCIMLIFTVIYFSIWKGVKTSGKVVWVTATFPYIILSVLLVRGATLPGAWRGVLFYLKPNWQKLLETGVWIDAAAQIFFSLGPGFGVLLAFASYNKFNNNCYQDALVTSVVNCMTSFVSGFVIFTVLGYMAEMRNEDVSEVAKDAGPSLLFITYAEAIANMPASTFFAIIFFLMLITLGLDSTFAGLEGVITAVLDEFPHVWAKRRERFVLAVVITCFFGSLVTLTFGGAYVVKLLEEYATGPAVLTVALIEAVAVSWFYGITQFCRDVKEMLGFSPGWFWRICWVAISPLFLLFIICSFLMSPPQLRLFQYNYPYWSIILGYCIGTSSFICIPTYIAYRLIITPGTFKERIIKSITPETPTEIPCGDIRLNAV

On to `COc1cc2c(cc1OC)C1=NOC(CN3CCN(C/C=C/c4ccccc4)CC3)C1CO2` (single isomer, unassigned) [Compound 8], for which the IC50 in assay [1] (read-out: hα2B pIC50 (converted)) was 7.24 nM; in assay [2] (setting [4]) it was 17.8 nM.
Regarding `c1ccc2c(c1)NCC1C2=NOC1CN1CCN(Cc2ccc3ccccc3c2)CC1` (stereo not drawn) [Compound 9], the IC50 in assay [1] (setting [5]) was 4.68 nM; in assay [2] (setting [6]), 1.58 nM; in assay [3] (setting [7]) it was 107 nM.
Take `CC(=Cc1ccccc1)CN1CCN(CC2ON=C3c4ccc(OCCN(C)C)cc4OCC32)CC1` (stereo not drawn) [Compound 242]: the IC50 in assay [1] (setting [5]) is 0.363 nM; in assay [2] (setting [6]), 11.2 nM.
As to `COc1cc2c(cc1OC)C1=NOC(CN3CCN(Cc4cccc(C#N)c4)CC3)C1CO2` (stereo not drawn) [Compound 97], the figures for the IC50 in assay [2] (setting [6]) and in assay [3] (setting [7]) were 355 nM and 1000 nM, respectively.
As for `O=C(N1CC2C(=NOC2CN2CCN(CC=Cc3ccccc3)CC2)c2ccccc21)C(F)(F)F` (stereo not drawn) [Compound 224], the “hα2B pIC50” value in assay [1] (setting [8]) was determined as 7.66. Besides, the “5HTT pIC50” value in assay [2] (setting [9]) was 7.31. For the same compound, in assay [3] (setting [10]), the “hα2C pIC50” value is on record as 7.13.
Consider `CCOC(=O)N1CC2C(=NOC2CN2CCN(CC=Cc3ccccc3)CC2)c2ccccc21` (stereo not drawn) [Compound 226], for which, in assay [1] (setting [8]), the “hα2B pIC50” value is 7.09. In assay [2] (setting [9]), the “5HTT pIC50” value is reported as 8.08. Moreover, in assay [3] (setting [10]), the “hα2C pIC50” value is reported as 6.96.
For `COc1cc2c(cc1OC)C1=NOC(CN3CCN(Cc4ccc([N+](=O)[O-])cc4)CC3)C1CO2` (stereo not drawn) [Compound 81], the IC50 in assay [2] (setting [6]) is 145 nM; in assay [3] (setting [7]), 1000 nM.
Regarding `CCNC(=O)Oc1ccc2c(c1)OCC1C2=NOC1CN1CCN(CC(C)=Cc2ccccc2)CC1` (stereo not drawn) [Compound 238], the IC50 in assay [1] (hα2B pIC50, membranes of CHO cells expressing human α2B receptor, [3H]raulwolscine 1 nM) is 2.4 nM; in assay [2] (5HTT pIC50), 8.51 nM; in assay [3] (setting [11]) it was 2.57 nM.
In the case of `COc1cc2c(cc1OC)C1=NOC(CN3CCN(CC=C(C)c4ccccc4)CC3)C1CN2` (stereo not drawn) [Compound 379], the figures for the IC50 in assay [1] (setting [5]), in assay [2] (setting [6]) and in assay [3] (setting [7]) were 19.5 nM, 34.7 nM and 40.7 nM, respectively.
`CC(=Cc1ccccc1)CN1CCN(CC2ON=C3c4ccc(OC(=O)C(C)(C)C)cc4OCC32)CC1` (stereo not drawn) [Compound 329]: the IC50 in assay [1] (setting [5]) is 27.5 nM; in assay [2] (setting [4]), 33.1 nM; in assay [3] (read-out: hα2C pIC50 (converted)) it was 18.2 nM.
Regarding `COc1cc2c(cc1OC)C1=NOC(CN3CCN(C/C(C)=C/c4ccccc4)CC3)C1CO2` (single isomer, unassigned) [Compound 129], the IC50 in assay [1] (setting [5]) was 9.77 nM; in assay [3] (setting [7]) it was 6.76 nM.
For the compound `COc1cc2c(cc1OC)C1=NOC(CN3CCN(CC(C)=Cc4ccccc4)CC3)C1CN2` (single isomer, unassigned) [Compound 253], the “hα2B pIC50” value in assay [1] (setting [8]) stood at 7.94. Besides, the “5HTT pIC50” value in assay [2] (setting [9]) was 6.60. Moreover, the “hα2C pIC50” value in assay [3] (setting [10]) was determined as 7.98.
In the case of `CCNC(=O)Oc1cc2c(cc1OC)C1=NOC(CN3CCN(C/C(C)=C/c4ccccc4)CC3)C1CO2` (single isomer, unassigned) [Compound 340], the IC50 was 22.9 nM in assay [2] (5HTT pIC50) and 3.8 nM in assay [3] (setting [11]).
